# Laboratory results reported in article PMC10895668, “Lead Optimization of the 5-Phenylpyrazolopyrimidinone NPD-2975 toward Compounds with Improved Antitrypanosomal Efficacy” (Journal of Medicinal Chemistry, 2024).
# Where a name gives a salt, the structure may show the parent alone. Read-outs that look alike come from different tables or passages of the source.
# Tests used:
# T. b. brucei = test: Trypanosoma susceptibility assay (resazurin viability); format: cell-based; details: for decrease of antitrypanosomal activity compared with 2: T. b. brucei, versus compound 2; for antitrypanosomal activity (in words): T. brucei in vitro
# Method: The antiparasitic assays were carried out exactly as described in Blaazer et al.([39]) Metabolic stability, pharmacokinetics, acute mouse infection model results were collected as described previously.[21] All animal experiments were conducted in compliance with institutional guidelines and following approval by the Ethical Committee of the University of Antwerp, Belgium [UA-ECD 2014–96]. Female Swiss mice (15–20 g), were purchased from Janvier (Le Genest Saint Isle, France). […] Animals were treated PO b.i.d. for 5 days at 25 and 50 mg/kg 31c. For the SL-RNA qPCR experiments blood was collected sublingually and subjected to erythrocyte lysis before extracting RNA with the QIAamp RNA Blood Mini kit (Qiagen). […] Small pieces of fat, brain, and spleen tissue were excised and immediately transferred to RNA later (Qiagen) and incubated overnight at 4 °C. RNA extraction was performed as instructed in the RNeasy Mini Plus Kit manual (Qiagen). The one-step SensiFAST SYBR Hi-Rox PCR kit (Bioline USA Inc., via Gentaur Belgium BVBA, Kampenhout, Belgium) was used for the PCR with the following forward and reverse primers, respectively 5′-[…]-3′ and 5′-[…]-3′. An initial activation step of 10 min at 45 °C and 10 min at 95 °C was used, followed by the amplification step for 40 cycles (15 s at 95 °C, 15 s 50 °C and 15 s at 60 °C). At last, the melting curves were generated with an increment of 0.3 °C (15 s at 95 °C 1 min at 45 °C and 15 s at 95 °C). The PCR was run on the Step One Plus real-time PCR system (Applied Biosystems, California, USA). An additional qPCR was performed with the mouse housekeeping gene Eef2 to confirm successful RNA extraction.
# In vitro experiments were carried out with the bloodstream form of the T. b. brucei Squib strain (suramin-sensitive). Parasites were routinely cultured in T25 culture flasks containing 10 mL of HMI-9 medium (Invitrogen) supplemented with 10% heat-inactivated fetal bovine serum (Life Technologies) and 2.5 μg/mL Geneticin (Life Technologies). MRC-5SV2 cells were cultured in MEM + Earl’s salts-medium, supplemented with 2 mM L-glutamine, 16.5 mM NaHCO3, and 5% inactivated fetal calf serum. All cultures and assays were conducted at 37 °C under an atmosphere of 5% CO2.
# Parasites were counted in a KOVA counting chamber and diluted to 1.5 × 10^4 parasites/well of a 96-well plate (200 μL total volume), upon which the prediluted test compounds were added. Drug exposure covered a 72 h period without renewal of the culture medium. After 3 days of incubation, parasite growth was assessed fluorimetrically after addition of 50 μL of resazurin per well. After 6 h (T. b. rhodesiense) or 24 h (T. b. brucei) at 37 °C, fluorescence is measured (λex 550 nm, λem 590 nm). Parasite viability was assessed using the resazurin viability assay, and drug activity was calculated as percentage viability reduction compared to nontreated controls.
# MRC-5 cells = test: MRC-5SV2 cytotoxicity assay; format: cell-based; details: Homo sapiens, MRC5, 72 h, read-out: pIC50 MRC-5 (converted)
# Method: The synthesized analogues were tested against T. b. brucei, and inhibition of MRC-5 (human lung fibroblasts MRC-5SV40) cell proliferation was included as cytotoxicity control. […] Analogue 17 with an amino group instead of the carbonyl group was prepared to improve solubility for further modification. […] In vitro experiments were carried out with the bloodstream form of the T. b. brucei Squib strain (suramin-sensitive). […] All cultures and assays were conducted at 37 °C under an atmosphere of 5% CO2. […] Cell growth is compared to untreated-control wells (100% cell growth) and medium-control wells (0% cell growth). […] After 4 h at 37 °C, fluorescence is measured (λex 550 nm, λem 590 nm). The results are expressed as % reduction in cell growth/viability compared to control wells and an IC50 and an IC90 (50 and 90% inhibitory concentrations) are determined.
# [1] = Trypanosoma brucei, 72 h, T. b. brucei Squib bloodstream form, 72 h exposure, mean ± SD, n ≥ 2, read-out: pIC50 T. brucei (converted)
# [2] = cytotoxicity, 3 days incubation, mean ± SD, n ≥ 2
Molecule,IC50 (T. b. brucei; [1]),IC50 (MRC-5 cells; [2]),also measured
"5-(4-Fluorophenyl)-3-isopropyl-1-(4-methoxyphenethyl)-1,6-dihydro-7H-pyrazolo[4,3-d]pyrimidin-7-one [21e]",–,–,IC50 (T. b. brucei; read-out: IC50 against T. brucei): 3.2 µM
"CCn1nc(C(C)C)c2nc(-c3ccc(F)cc3)[nH]c(=O)c21 [21a, 1-Ethyl-5-(4-fluorophenyl)-3-isopropyl-1,6-dihydro-7H-pyrazolo[4,3-d]pyrimidin-7-one]",0.251 µM,> 63.1 µM,–
"CCCn1nc(C(C)C)c2nc(-c3ccc(F)cc3)[nH]c(=O)c21 [21b, 5-(4-Fluorophenyl)-3-isopropyl-1-propyl-1,6-dihydro-7H-pyrazolo[4,3-d]pyrimidin-7-one]",0.158 µM,> 63.1 µM,–
"CC(C)c1nn(C(C)C)c2c(=O)[nH]c(-c3ccc(F)cc3)nc12 [21c, 5-(4-Fluorophenyl)-1,3-diisopropyl-1,6-dihydro-7H-pyrazolo[4,3-d]pyrimidin-7-one]",6.31 µM,> 63.1 µM,decrease of antitrypanosomal activity compared with 2 (T. b. brucei): ~100 fold
"COCCn1nc(C(C)C)c2nc(-c3ccc(F)cc3)[nH]c(=O)c21 [21d, 5-(4-Fluorophenyl)-3-isopropyl-1-(2-methoxyethyl)-1,6-dihydro-7H-pyrazolo[4,3-d]pyrimidin-7-one]",> 63.1 µM,> 63.1 µM,antitrypanosomal activity (in words) (T. b. brucei): no antitrypanosomal activity at all
"CC(C)c1nn(CCC(N)=O)c2c(=O)[nH]c(-c3ccc(F)cc3)nc12 [21f, 3-(5-(4-Fluorophenyl)-3-isopropyl-7-oxo-6,7-dihydro-1H-pyrazolo[4,3-d]pyrimidin-1-yl)propanamide]",> 63.1 µM,> 63.1 µM,antitrypanosomal activity (in words) (T. b. brucei): no antitrypanosomal activity
"O=c1[nH]c(-c2ccc(F)cc2)nc2c(C3CCCCC3)n[nH]c12 [31b, 3-Cyclohexyl-5-(4-fluorophenyl)-1,6-dihydro-7H-pyrazolo[4,3-d]pyrimidin-7-one]",–,> 63.1 µM,"potency lower compared to 31a (T. b. brucei; T. brucei, versus compound 31a): 4 fold"
"CCc1n[nH]c2c(=O)[nH]c(-c3ccc(F)cc3)nc12 [31d, 3-Ethyl-5-(4-fluorophenyl)-1,6-dihydro-7H-pyrazolo[4,3-d]pyrimidin-7-one]",0.398 µM,> 63.1 µM,–
"Cc1n[nH]c2c(=O)[nH]c(-c3ccc(F)cc3)nc12 [31e, 5-(4-Fluorophenyl)-3-methyl-1,6-dihydro-7H-pyrazolo[4,3-d]pyrimidin-7-one]",25.1 µM,> 63.1 µM,–
"O=c1[nH]c(-c2ccc(F)cc2)nc2cn[nH]c12 [31f, 5-(4-Fluorophenyl)-1,6-dihydro-7H-pyrazolo[4,3-d]pyrimidin-7-one Formate]",–,–,"IC50 (T. b. brucei; Trypanosoma brucei, 72 h, read-out: pIC50 T. brucei (converted)): > 63.1 µM; IC50 (MRC-5 cells): > 63.1 µM"
"CC(C)c1[nH]nc2c(=O)n(C)c(-c3ccc(F)cc3)nc12 [compound 7, 5-(4-Fluorophenyl)-3-isopropyl-6-methyl-2,6-dihydro-7H-pyrazolo[4,3-d]pyrimidin-7-one]",> 10 µM,> 63.1 µM,decrease of antitrypanosomal activity compared with 2 (T. b. brucei): > 100 fold
"CC(C)c1nn(C)c2c(=O)[nH]c(-c3ccc(F)cc3)nc12 [compound 11, 5-(4-Fluorophenyl)-3-isopropyl-1-methyl-1,6-dihydro-7H-pyrazolo[4,3-d]pyrimidin-7-one]",< 0.1 µM,> 63.1 µM,"pIC50 T. brucei (T. b. brucei; T. b. brucei Squib bloodstream form, 72 h exposure, mean ± SD, n ≥ 2): 7.1 ± 0.1"
"CC(C)c1c2nc(-c3ccc(F)cc3)[nH]c(=O)c2nn1C [compound 15, 5-(4-Fluorophenyl)-3-isopropyl-2-methyl-2,6-dihydro-7H-pyrazolo[4,3-d]pyrimidin-7-one]",1.58 µM,> 63.1 µM,decrease of antitrypanosomal activity compared with 2 (T. b. brucei): 20 fold
"CC(C)c1n[nH]c2c(=N)[nH]c(-c3ccc(F)cc3)nc12 [compound 17, 5-(4-Fluorophenyl)-3-isopropyl-1,6-dihydro-7H-pyrazolo[4,3-d]pyrimidin-7-imine]",> 10 µM,25.1 µM,decrease of antitrypanosomal activity compared with 2 (T. b. brucei): > 100 fold
